Assay results taken from ChEMBL document CHEMBL1201862, “PubChem BioAssay data set” (2004).
The source made the active and inactive calls.

Tests used:
Nonstructural protein 1 = Nonstructural protein 1 (Influenza A virus, UniProt Q194T2); assay type: functional, Influenza A virus (A/California/07/2009(H1N1))
[1] = HEp-2 cell cytotoxicity, dose response, cytotoxicity control for RSV inhibitor project, HTS (AID 2410); assay type: functional; conditions: human respiratory syncytial virus
[2] = molecular target: Voltage-dependent T-type calcium channel subunit alpha-1H (Homo sapiens, UniProt O95180); assay type: functional;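 note: channel activity triggered by adding a high calcium stimulation buffer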
Chain of Voltage-dependent T-type calcium channel subunit alpha-1H (O95180 whole entry): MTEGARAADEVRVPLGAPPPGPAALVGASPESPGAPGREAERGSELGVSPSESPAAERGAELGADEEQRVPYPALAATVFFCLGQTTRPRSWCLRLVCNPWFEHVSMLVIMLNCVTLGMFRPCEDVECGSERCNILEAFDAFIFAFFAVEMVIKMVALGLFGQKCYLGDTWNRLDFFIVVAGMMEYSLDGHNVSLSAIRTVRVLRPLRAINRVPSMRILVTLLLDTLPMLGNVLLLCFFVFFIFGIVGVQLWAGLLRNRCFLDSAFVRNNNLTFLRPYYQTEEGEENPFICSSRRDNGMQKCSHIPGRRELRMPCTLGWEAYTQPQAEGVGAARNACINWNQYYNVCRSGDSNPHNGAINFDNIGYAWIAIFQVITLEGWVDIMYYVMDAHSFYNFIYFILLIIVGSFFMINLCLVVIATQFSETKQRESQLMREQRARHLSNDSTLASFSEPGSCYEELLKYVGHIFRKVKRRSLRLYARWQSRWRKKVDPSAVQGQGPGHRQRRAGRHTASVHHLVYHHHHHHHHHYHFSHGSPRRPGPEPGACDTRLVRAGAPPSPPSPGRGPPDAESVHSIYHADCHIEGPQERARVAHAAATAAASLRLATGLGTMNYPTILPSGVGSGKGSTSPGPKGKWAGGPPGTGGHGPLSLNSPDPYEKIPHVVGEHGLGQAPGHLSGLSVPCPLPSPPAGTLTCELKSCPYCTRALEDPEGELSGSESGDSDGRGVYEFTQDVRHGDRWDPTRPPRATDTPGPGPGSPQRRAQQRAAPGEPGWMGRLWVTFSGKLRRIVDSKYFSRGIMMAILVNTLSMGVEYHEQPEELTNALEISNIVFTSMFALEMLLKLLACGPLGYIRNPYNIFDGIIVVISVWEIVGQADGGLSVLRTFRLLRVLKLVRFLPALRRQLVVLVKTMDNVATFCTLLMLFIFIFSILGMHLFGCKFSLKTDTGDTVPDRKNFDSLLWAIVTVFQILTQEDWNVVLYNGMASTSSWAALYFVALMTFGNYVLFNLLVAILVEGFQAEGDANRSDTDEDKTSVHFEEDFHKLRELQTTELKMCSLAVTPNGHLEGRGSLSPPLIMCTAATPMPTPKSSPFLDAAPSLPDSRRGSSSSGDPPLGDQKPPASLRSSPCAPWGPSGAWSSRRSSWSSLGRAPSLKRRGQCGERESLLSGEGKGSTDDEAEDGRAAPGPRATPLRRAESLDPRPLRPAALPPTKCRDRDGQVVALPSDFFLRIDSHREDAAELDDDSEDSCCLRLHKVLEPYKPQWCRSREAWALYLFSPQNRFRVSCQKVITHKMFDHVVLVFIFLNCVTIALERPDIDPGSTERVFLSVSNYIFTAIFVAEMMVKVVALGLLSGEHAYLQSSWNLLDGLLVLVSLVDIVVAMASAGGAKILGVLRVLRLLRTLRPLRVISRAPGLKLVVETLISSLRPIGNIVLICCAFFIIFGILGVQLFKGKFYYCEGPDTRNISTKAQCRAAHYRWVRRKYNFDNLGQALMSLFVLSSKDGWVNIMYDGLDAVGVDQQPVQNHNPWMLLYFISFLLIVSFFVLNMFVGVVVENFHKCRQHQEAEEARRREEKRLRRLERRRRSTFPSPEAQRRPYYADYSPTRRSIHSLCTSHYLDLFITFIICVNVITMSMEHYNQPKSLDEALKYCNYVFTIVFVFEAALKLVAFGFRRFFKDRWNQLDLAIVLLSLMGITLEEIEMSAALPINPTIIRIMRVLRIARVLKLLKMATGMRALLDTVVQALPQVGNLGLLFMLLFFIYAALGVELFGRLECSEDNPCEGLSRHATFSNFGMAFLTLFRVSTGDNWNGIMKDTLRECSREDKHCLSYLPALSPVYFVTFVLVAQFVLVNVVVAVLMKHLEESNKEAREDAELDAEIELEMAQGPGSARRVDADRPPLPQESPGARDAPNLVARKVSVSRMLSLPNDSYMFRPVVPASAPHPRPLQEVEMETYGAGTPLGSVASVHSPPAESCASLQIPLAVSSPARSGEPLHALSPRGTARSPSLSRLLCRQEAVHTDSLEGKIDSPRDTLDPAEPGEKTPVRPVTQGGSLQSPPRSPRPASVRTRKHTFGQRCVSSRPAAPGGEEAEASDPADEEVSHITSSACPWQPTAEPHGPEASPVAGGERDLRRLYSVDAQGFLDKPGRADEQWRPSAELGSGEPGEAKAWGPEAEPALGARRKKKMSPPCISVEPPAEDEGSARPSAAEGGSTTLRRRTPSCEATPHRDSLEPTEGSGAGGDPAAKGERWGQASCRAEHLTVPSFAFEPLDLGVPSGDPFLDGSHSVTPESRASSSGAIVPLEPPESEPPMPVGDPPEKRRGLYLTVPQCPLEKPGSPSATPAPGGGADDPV

cells [3] = assay: cells
Hexokinase HKDC1 = molecular target: T1, Hexokinase HKDC1 (Homo sapiens, UniProt Q2TB90); assay: HKDC1 hexokinase inhibitors, dose response, biochemical, W721R variant (AID 504729); assay type: functional
T1 sequence (Q2TB90 whole entry): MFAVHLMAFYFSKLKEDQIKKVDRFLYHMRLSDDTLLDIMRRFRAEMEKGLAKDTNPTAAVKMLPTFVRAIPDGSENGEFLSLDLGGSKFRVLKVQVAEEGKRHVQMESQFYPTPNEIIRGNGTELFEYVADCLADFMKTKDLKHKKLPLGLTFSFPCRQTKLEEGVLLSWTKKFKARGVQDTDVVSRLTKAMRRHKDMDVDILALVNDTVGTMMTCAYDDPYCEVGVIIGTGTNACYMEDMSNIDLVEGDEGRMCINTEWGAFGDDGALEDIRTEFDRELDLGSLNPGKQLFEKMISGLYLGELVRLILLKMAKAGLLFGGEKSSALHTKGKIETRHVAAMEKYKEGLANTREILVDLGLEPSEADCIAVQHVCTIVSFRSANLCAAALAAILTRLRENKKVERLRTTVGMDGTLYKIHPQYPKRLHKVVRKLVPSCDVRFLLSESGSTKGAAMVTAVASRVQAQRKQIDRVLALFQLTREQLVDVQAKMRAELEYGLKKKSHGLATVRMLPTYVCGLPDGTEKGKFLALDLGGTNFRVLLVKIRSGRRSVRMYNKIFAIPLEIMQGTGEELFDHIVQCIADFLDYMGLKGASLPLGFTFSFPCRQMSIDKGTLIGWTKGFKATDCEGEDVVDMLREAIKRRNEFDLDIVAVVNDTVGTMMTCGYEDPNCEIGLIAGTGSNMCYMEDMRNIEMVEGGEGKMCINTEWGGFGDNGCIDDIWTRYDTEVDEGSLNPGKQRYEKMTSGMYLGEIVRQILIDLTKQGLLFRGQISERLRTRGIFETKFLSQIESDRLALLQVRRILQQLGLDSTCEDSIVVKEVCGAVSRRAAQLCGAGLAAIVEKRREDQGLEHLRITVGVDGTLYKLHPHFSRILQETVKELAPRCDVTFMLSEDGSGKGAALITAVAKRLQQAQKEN

[4] = THP-1 cell cytotoxicity, dose response, cytotoxicity control for non-replicating M. tuberculosis project (AID 489025); assay type: functional
[5] = molecular target: FAD-linked sulfhydryl oxidase ALR (Homo sapiens, UniProt P55789); assay: inhibitors of human ALR sulfhydryl oxidase, dose response, biochemical, H2O2 detection, luminescence, cherry-pick (AID 493248)
Chain of FAD-linked sulfhydryl oxidase ALR (P55789 whole entry): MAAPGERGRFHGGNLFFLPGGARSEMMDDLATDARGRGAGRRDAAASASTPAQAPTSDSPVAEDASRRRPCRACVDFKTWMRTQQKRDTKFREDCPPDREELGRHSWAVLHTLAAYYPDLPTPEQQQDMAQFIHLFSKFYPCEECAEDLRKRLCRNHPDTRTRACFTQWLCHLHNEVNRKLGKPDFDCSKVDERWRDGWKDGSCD

cells [6] = assay type: functional
[7] = molecular target: Glyceraldehyde-3-phosphate dehydrogenase (Homo sapiens, UniProt P04406)
Chain of Glyceraldehyde-3-phosphate dehydrogenase (P04406 whole entry): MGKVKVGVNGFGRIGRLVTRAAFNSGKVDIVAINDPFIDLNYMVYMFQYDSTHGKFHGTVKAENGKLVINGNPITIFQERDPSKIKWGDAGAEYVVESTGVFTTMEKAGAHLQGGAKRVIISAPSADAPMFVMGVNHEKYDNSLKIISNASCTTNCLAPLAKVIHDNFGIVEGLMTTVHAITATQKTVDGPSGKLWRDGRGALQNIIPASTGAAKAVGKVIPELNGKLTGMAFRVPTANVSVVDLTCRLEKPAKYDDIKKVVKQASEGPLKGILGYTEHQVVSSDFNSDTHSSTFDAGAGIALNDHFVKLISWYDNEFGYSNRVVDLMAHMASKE

[8] = molecular target: T2, Alkaline phosphatase, tissue-nonspecific isozyme (Homo sapiens, UniProt P05186); assay: human TNAP enzyme inhibitors, SAR follow-up, biochemical, luminescent, dose response (AID 1056)
T2 sequence (P05186 whole entry): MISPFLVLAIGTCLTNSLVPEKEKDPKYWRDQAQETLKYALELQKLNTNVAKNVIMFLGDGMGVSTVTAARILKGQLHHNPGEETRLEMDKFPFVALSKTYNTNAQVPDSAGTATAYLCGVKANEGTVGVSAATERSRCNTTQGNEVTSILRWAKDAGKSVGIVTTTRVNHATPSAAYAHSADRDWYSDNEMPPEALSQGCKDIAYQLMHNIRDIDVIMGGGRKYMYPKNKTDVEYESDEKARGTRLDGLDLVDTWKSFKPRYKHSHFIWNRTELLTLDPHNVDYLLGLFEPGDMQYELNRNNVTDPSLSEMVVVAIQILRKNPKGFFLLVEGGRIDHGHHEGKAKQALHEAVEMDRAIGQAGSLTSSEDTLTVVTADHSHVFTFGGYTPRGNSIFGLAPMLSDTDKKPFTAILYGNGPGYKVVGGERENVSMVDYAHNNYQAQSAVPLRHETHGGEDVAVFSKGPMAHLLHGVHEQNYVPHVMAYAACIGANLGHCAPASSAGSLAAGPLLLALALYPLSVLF

Coagulation factor XII = molecular target: T3, Coagulation factor XII (Homo sapiens, UniProt P00748); assay type: functional;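 note: activated factor XIIa alpha cleaving a fluorogenic AMC peptide substrate; inhibitor potency from loss of enzyme activity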
T3 sequence (P00748 whole entry): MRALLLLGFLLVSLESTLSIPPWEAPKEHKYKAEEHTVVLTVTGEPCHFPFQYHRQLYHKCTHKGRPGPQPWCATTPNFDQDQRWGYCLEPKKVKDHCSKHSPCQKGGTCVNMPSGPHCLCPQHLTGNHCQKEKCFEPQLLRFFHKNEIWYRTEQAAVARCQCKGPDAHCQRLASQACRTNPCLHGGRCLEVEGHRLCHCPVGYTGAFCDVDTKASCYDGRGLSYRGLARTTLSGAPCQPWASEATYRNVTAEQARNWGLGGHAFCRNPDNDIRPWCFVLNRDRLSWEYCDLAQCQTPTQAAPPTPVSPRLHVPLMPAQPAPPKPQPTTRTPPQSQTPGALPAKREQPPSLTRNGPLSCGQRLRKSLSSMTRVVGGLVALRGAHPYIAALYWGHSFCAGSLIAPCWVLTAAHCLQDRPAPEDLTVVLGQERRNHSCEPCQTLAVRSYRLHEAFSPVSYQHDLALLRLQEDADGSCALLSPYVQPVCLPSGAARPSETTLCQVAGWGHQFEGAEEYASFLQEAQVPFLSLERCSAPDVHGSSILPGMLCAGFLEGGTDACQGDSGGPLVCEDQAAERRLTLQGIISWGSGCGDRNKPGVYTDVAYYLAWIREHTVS

[9] = molecular target: T4, Calpain-2 catalytic subunit (Sus scrofa, UniProt P43367); assay: pig calpain II inhibitor potency, dose response, biochemical, fluorogenic peptide substrate (AID 1420); assay type: functional
T4 sequence (P43367 whole entry): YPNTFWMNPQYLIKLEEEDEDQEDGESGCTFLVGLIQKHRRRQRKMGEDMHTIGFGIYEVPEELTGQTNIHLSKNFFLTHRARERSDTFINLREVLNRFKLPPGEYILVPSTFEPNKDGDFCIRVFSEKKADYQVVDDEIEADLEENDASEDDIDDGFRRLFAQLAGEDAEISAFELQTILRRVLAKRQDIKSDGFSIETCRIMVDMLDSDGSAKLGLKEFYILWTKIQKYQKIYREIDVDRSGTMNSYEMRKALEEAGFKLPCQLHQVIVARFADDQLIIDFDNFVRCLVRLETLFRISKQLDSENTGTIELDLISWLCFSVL

Cytochrome P450 2D6 = Cytochrome P450 2D6 (Homo sapiens, UniProt P10635);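 note: CYP2D6 member of a cytochrome P450 panel assay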
Chain of Cytochrome P450 2D6 (P10635 whole entry): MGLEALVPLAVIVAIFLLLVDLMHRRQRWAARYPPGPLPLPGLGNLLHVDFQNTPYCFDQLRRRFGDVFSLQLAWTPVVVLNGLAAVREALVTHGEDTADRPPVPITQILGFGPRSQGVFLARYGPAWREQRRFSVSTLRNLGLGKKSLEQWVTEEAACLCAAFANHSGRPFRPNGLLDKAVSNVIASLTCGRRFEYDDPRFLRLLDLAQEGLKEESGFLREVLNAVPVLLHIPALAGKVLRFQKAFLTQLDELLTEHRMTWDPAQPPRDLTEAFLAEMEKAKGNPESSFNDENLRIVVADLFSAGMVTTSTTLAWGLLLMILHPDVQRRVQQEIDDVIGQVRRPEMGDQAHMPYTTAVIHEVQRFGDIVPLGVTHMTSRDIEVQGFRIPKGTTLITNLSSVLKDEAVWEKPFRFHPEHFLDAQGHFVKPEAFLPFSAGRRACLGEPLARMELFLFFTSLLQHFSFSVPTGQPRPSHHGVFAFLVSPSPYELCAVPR

[10] = test system: Streptococcus sp. 'group A'; assay: growth inhibition of control SK(-) GAS strain, dose response, counter-screen for streptokinase expression inhibitor project, luminescence, kanamycin, BacTiterGlo, confirmation (AID 1900); assay type: functional, organism-based
Streptokinase A = molecular target: T5, Streptokinase A (Streptococcus pyogenes serotype M1, UniProt P10520); assay: S. pyogenes streptokinase expression inhibitors, potency, dose response, plasminogen activation absorbance, OD405 (AID 1914); assay type: functional, Streptococcus pyogenes M1 GAS;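 note: secreted streptokinase activity via plasminogen activation per viability signal from cell pellet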
T5 sequence (P10520 whole entry): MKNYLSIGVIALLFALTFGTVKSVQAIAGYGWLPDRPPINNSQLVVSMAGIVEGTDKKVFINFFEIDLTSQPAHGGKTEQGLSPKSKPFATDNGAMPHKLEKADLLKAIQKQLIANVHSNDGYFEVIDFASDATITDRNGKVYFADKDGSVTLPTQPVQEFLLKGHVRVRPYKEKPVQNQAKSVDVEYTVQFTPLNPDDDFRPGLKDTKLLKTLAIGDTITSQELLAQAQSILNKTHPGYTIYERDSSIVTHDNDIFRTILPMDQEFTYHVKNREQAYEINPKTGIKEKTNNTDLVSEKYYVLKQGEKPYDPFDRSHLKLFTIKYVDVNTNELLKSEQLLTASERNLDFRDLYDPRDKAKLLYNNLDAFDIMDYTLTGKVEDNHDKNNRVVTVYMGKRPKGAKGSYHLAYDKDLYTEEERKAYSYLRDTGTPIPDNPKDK

Streptococcus = assay: Group A Streptococcus viability loss, dose response, counter-screen for streptokinase expression inhibitor project, luminescence, BacTiterGlo (AID 1915); assay type: functional, organism-based;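 note: potency for reduction of bacterial viability or growth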
Bcl-2-related protein A1 = molecular target: T6, Bcl-2-related protein A1 (Mus musculus, UniProt Q07440); assay type: functional;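 note: confirmatory dose–response counterscreen on Bfl-1, used to check hits from a UBC13 polyubiquitin inhibitor campaign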
T6 sequence (Q07440 whole entry): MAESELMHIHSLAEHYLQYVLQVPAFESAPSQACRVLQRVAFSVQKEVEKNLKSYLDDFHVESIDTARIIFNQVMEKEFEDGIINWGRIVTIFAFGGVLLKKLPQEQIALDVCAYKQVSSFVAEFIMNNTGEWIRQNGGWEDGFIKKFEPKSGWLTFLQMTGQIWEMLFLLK

[11] = molecular target: T7, Ubiquitin-conjugating enzyme E2 N (Homo sapiens, UniProt P61088); assay type: functional
T7 sequence (P61088 whole entry): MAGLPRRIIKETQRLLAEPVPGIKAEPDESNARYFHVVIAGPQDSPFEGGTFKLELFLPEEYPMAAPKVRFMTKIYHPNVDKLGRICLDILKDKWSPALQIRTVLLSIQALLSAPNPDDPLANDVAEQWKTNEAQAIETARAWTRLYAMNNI

[12] = molecular target: T7, Ubiquitin-conjugating enzyme E2 N; assay type: functional; remark: listed apart in the source
cells [13] = assay type: functional, cell-based
cells [14] = assay type: functional, cell-based; remark: listed apart in the source
Cytochrome P450 2C9 = Cytochrome P450 2C9 (Homo sapiens, UniProt P11712)
Chain of Cytochrome P450 2C9 (P11712 whole entry): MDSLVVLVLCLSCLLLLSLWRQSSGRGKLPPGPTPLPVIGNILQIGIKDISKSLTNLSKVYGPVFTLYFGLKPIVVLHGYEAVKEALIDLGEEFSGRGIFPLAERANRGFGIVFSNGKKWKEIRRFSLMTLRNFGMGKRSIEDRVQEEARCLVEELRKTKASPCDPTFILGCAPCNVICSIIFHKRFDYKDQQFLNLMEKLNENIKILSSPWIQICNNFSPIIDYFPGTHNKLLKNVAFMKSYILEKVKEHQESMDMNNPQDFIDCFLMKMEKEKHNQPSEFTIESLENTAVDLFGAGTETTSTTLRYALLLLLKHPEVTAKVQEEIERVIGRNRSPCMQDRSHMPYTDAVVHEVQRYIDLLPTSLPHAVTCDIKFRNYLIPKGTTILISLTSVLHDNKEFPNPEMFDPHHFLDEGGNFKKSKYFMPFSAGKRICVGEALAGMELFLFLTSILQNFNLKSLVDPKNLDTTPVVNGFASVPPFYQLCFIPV

Chain of Nonstructural protein 1 (Q194T2 whole entry): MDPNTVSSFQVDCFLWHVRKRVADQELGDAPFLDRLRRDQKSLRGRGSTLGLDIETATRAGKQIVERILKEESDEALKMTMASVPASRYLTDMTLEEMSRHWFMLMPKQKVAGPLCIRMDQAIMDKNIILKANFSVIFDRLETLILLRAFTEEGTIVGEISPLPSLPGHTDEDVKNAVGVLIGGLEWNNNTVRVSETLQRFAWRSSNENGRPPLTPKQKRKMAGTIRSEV

For COc1ccc(NC(=O)CSc2n[nH]c(-c3ccccn3)n2)cc1, the IC50 (Nonstructural protein 1) was 4.25 µM (active).

In the case of COc1cccc(C(=O)N(Cc2nc(-c3cccc(C)c3)no2)C(C)C)c1OC, the CC50 [1] is reported as 30.6 µM (active), the EC50 [2] is reported as 12.7 µM (active) and the IC50 (cells [3]) is reported as 4.69 µM (active).

With CCc1nc2c(c(=O)c3ccccc3n2C)c(=O)n1-c1ccc(F)cc1 the IC50 (Hexokinase HKDC1) was 7.9 µM (active).

With Cc1ccc(-c2nc3ccccn3c2Nc2ccccc2)o1 the CC50 [4] was > 40 µM (active), the AC50 [5] was 0.235 µM (active) and the IC50 (cells [6]) was 19.7 µM (active).

For O=S(=O)(Nc1cccnc1)c1cc(Cl)cc(Cl)c1O, the IC50 [7] was > 100 µM (not active) and the IC50 [8] was > 100 µM (inactive).

In the case of Cc1ccc(NC(=O)CSCC(N)=O)cc1C, the IC50 (Coagulation factor XII) is reported as > 50 µM (inactive).

In the case of O=C(CSc1nnc(CCCN2C(=O)c3cccc4cccc(c34)C2=O)n1-c1ccccc1)N1CCCCC1, the IC50 (Hexokinase HKDC1) is reported as 11.4 µM (active).

With O=C(Cc1ccccc1)NC(NC(=S)Nc1cc(Cl)ccc1Cl)C(Cl)(Cl)Cl (configuration not stated) the IC50 [9] was > 50 µM (not active), the IC50 (Coagulation factor XII) was > 50 µM (inactive) and the AC50 (Cytochrome P450 2D6) was 3.16 µM (inconclusive).

In the case of O=C(CN(Cc1cccs1)C(=O)CCC(=O)Nc1nccs1)NCc1ccccc1, the IC50 (Coagulation factor XII) is reported as > 50 µM (inactive).

For c1cncc(-c2cncnc2)c1, the IC50 [7] was > 100 µM (not active) and the IC50 [8] was > 100 µM (inactive).

For CC1CC(C)(C)n2c(O)c(/N=N/C(=N)S)c3cccc1c32 (configuration not stated), the EC50 [10] was 9.25 µM (active), the EC50 (Streptokinase A) was > 150 µM (not active) and the EC50 (Streptococcus) was > 150 µM (not active). For the same molecule, the IC50 (Bcl-2-related protein A1) was > 20 µM (inactive), the IC50 [11] was 6.33 µM (active) and the IC50 [12] was 4.95 µM (active).

With O=C(O)c1ccc(/N=C/c2c(O)ccc3ccccc23)cc1 the IC50 (Hexokinase HKDC1) was 38.1 µM (inactive).

With N#C/C(=N\Nc1ccccc1)C(N)=S the IC50 (Coagulation factor XII) was > 50 µM (inactive).

For COc1ccc(C(=O)N/N=C/c2cccc3cccnc23)cc1, the EC50 (cells [13]) was 15.5 µM (active), the EC50 (cells [14]) was > 350 µM (not active) and the CC50 [4] was 14.7 µM (active). The IC50 (Nonstructural protein 1) was 5.8 µM (active), the IC50 (cells [6]) was 3.44 µM (active) and the AC50 (Cytochrome P450 2C9) was “inconclusive”.
